Several values for one entry are separate records, joined by “and”; a condition that tells them apart may be missing. Equal entries are not always repeated. Where two headings read alike, the source gives them in different places. Marks after values point to notes of the source that are not given here.
Tests used:
[1] = test system: pooled human liver microsomes; experiment: in vitro
Protocol: (§1) A 1.15% KCl solution was made in HPLC grade water and stored at 4°C. HLM (20 mg/ml in 250 mM sucrose) were diluted in 1.15% KCl to achieve a final protein concentration of 0.1; 0.25; 0.5; 0.75 and 1 mg/ml in the samples. The stop reagent was made with 300 μl FA, 5,500 μl ACN and Ultrapure water and contained the internal standards (IS; 0.072 μM of CHL and 0.12 μg/ml of ZAN).
(§2) Samples were prepared partially based on [Schelstraete et al. (2019a],[b)]. […] Next, 50 μl of a freshly prepared NADPH.4Na solution was added. After an incubation of 3 min, 50 μl of diluted HLM was added and they were placed back on the thermoshaker TS-100 (Biosan, Geraardsbergen, Belgium) with a rotation speed of 300 rpm and at a temperature of 37°C. After the indicated time (i.e., 5, 10, 20, 30 and 45 min), 25 μl of an ice cold stop reagent with IS, i.e., CHL for CYP probes and ZAN for AFB1, was added. For protein precipitation, 125 μl of TFA was added. Samples were centrifuged at 16,000×g for 20 min at 4°C. The centrifugal filters were discarded and the supernatant was added to 1 ml of a 0.2 M phosphate buffer. Next, 7 ml of ethyl acetate was added in order to perform a liquid–liquid extraction (LLE). Samples were extracted during 20 min on an Agitelec shaker at room temperature. For phase separation, samples were centrifuged at 2,000× g for 10 min. Subsequently, the organic phase was transferred in glass tubes and evaporated under a gentle nitrogen stream at 40°C (±5°C) using a Turbovap (Biotage, Charlotte, United States). After evaporation, samples were kept at −20°C until further analysis. Upon analysis, 250 μl of a 60/40 mobile phase A (MP A; H2O/MeOH/acetic acid (94/5/1, v/v/v) + 5 mM ammonium acetate)/mobile phase B (MP B; H2O/MeOH/acetic acid (2/97/1, v/v/v) + 5 mM ammonium acetate) mixture was added. After thorough vortexing and centrifuging for 10 min at 1,000× g, the samples were transferred to an autosampler vial. An aliquot of 5 μl was injected into the ultrahigh performance liquid chromatography (UPLC) - XEVO TQ-S (LC–MS/MS) equipment using an in-house developed and validated method.
(§3) A Waters Acquity class I UPLC system coupled to a XEVO TQ-S tandem quadrupole mass spectrometer (MS) from Waters (Milford, MA, United States) was used for the detection and quantification. A Charged Surface Hybrid (CSH) C18 column (1.7 μm 2.1 × 100 mm) with Guard column was used for chromatographic separation. The column temperature was set at 30°C; the sample temperature at 10°C. The MP was used at a flow rate of 0.250 ml/min following a gradient program (Table 1). The total duration for a single run was 12 min. The MS was operated in the electrospray positive mode (ESI+) with multiple reaction monitoring (MRM). Source temperature and desolvation temperature were set at 130°C and 200°C. The cone gas flow was set at 150 L/h, the desolvation gas flow at 550 L/h. Data was processed using Masslynx® and Targetlynx® software from Micromass (Manchester, United Kingdom). Data analysis was performed by transferring Targetlynx® data to Microsoft Excel and Sigmaplot version 14.5. For AFB1, substrate depletion was measured. Nonlinear regression on sigmoidal plots where the initial depletion rate (kdep) was plotted against AFB1 concentrations on a linear-log plot, was performed using Excel Solver ([Youdim and Dodia, 2010]).
(§4) Substrate work solutions of AFB1 were made to achieve sample concentrations from 0.5 μM to 50 μM, for the HLM experiments. For rhCYP an extra AFB1 sample concentration of 100 μM was implemented. HLM (20 mg/ml in 250 mM sucrose) were diluted in 1.15% KCl to achieve a final protein concentration of 0.25 and 0.5 mg/ml in the samples, as based on previous linearity experiments. The stop reagents were those described in 2.1.2.
(§5) For CYP3A4 rhCYP experiments, 50 μl of diluted supersomes at 150 pmol/ml were used instead of HLM, achieving a final concentration of 30 pmol/ml.

[2] = test system: CYP3A4 (MDZ), CYP1A2 (PH); experiment: in vitro; settings: human, pH 7.4; for microsomal CLint: microsomes
Protocol: as §1, §2, §3, §4, §5

[3] = cited from earlier work
CYP3A4 [4] = molecular target: CYP3A4 (Homo sapiens, UniProt P08684); experiment: in vitro
Protocol: as §4
(§6) For CYP3A4 rhCYP experiments, 50 μl of diluted supersomes at 150 pmol/ml were used instead of HLM, achieving a final concentration of 30 pmol/ml. For CYP1A2 rhCYP experiments, 50 μl of diluted EasyCYP LR bactosomes at 50 pmol/ml were used, achieving a final concentration of 10 pmol/ml.
(§7) The same equipment, settings and procedures were used as explained in Section “LC–MS/MS (linearity experiments).” Data analysis was performed by transferring Targetlynx® data to Microsoft® Excel. Metabolite formation velocity versus substrate concentration figures were plotted with error bars, Sigmaplot version 14.5 was used for determining the Michaelis–Menten constant (Km) and maximum velocity (Vmax) by performing nonlinear regression on the figures. For AFB1 substrate depletion was measured. Nonlinear regression on sigmoidal plots, where the initial depletion rate (kdep) was plotted against AFB1 concentrations on a linear-log plot, was performed using Excel Solver ([Youdim and Dodia, 2010]).
(§8) The CLH,u,int is multiplied by the AAF, leading to an AAF corrected CLH,u,int (CLH,u,int,AAF). The obtained Km and Vmax values of the CYP probes from rhCYPs were used to calculate intersystem extrapolation factors (ISEFs) for both Vmax and CLint (Equations 7 and 8).
(§9) (7) VmaxISEF=Vmax,HLM/Vmax,rhCYP∗CYPabundancepmolP450/mg
(§10) (8) CLintISEF=Vmax,HLM/Km,HLM∗10^−6/Vmax,rhCYP/Km,rhCYP∗10^−6∗CYPabundancepmolP450/mg
(§11) CLH,u,int,AAF values of AFB1 from rhCYP experiments were multiplied with the CLint ISEF, resulting in an ISEF corrected CLH,u,int,AAF (CLH,u,int,AAF,ISEF). […] Equation 10 presents the extrapolation to the whole liver hepatic blood clearance from rhCYP experiments. The hepatic blood clearance (CLH,B) was multiplied by the blood/plasma ratio (B:P) to obtain the whole liver hepatic plasma clearance, CLH,P.
(§12) (10) CLH,BL/h=QH∗fu,b∗CLH,u,int,AAF,ISEF/QH+fu,b∗CLH,u,int,AAF,ISEF
(§13) Next, Km and Vmax experiments were performed in recombinant enzyme systems. […] For AFB1, where substrate depletion was analyzed, kdep was determined for different substrate concentrations in supersomes and bactosomes which was plotted against AFB1 substrate concentrations on a log-scale (Figures 3E,F). By dividing the theoretical maximal kdep by the protein concentration, the CLint was achieved from which the Vmax could be determined ([Youdim and Dodia, 2010]).

[5] = human, microsomes
human liver microsomes [6] = settings: cited from earlier work
CYP1A2 [7] = molecular target: T1, CYP1A2 (Homo sapiens, UniProt P05177)
Protocol: as §4, §6, §7, §8, §9, §10, §11, §12, §13

CYP3A4 [8] = settings: cited from earlier work
CYP3A4/3A5 = assay type: in vitro ADME, human
CYP3A7 = settings: cited from earlier work
human liver microsomes [9] = experiment: AFB1 inhibition assays in HLM, both contributions combined; assay type: in vitro ADME
CYP3A5 = settings: cited from earlier work
CYP1A2 [10] = molecular target: T1, CYP1A2; experiment: AFB1 inhibition assay in HLM with α-naphthoflavone; assay type: in vitro ADME; set-up: tissue Corning; host or cells: human liver microsomes, UltraPool HLM 150, mixed gender
CYP1A2 [11] = molecular target: T1, CYP1A2; set-up: tissue Corning; host or cells: human liver microsomes, UltraPool HLM 150, mixed gender; settings: cited from earlier work
[12] = cited from earlier work; remark: listed apart in the source
[13] = HLM pool of 16.0 donors, ref Kazmi, 2015

T1 sequence (P05177 whole entry): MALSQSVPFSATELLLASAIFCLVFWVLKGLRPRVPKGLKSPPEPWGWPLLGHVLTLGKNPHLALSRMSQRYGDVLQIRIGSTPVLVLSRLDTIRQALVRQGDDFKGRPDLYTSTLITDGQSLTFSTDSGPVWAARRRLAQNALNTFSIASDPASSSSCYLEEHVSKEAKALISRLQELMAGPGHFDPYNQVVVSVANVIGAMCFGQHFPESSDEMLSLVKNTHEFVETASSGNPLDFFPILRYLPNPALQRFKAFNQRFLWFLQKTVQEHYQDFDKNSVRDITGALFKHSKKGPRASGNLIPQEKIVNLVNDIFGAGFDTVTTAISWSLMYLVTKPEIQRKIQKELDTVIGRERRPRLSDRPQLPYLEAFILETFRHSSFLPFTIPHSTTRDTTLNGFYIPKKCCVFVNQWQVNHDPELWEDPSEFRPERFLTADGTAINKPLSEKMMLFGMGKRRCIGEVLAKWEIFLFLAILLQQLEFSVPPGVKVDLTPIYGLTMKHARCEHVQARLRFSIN
Sequence of CYP3A4 (Homo sapiens, UniProt P08684) (P08684 2-503): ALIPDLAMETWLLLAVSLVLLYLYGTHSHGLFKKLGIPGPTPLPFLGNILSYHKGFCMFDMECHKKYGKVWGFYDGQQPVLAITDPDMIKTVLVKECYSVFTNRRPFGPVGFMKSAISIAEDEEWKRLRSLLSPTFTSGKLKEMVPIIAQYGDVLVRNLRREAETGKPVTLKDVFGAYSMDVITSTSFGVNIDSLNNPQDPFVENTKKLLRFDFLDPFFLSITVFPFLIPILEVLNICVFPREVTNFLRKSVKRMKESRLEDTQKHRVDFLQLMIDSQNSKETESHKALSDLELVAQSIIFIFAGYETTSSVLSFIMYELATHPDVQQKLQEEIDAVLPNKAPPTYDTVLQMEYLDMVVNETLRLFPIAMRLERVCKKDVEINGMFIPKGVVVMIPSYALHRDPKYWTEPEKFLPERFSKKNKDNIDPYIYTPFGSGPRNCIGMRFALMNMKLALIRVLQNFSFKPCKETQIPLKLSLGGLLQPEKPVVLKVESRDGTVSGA

Cc1ncc2n1-c1ccc(Cl)cc1C(c1ccccc1F)=NC2 [MDZ, midazolam, reference compound]
CLH,B calculated (hepatic blood clearance, AAF corrected) ([1]; human, pH 7.4): 44.1 L/h | CLH,p calculated (hepatic plasma clearance) ([1]; human, pH 7.4): 26.6 L/h | CLH,u,int (whole liver) ([1]; human, pH 7.4): 1,941 L/h | calculated CLH,B compared to literature ([1]; human, pH 7.4): ≤ 1.00 fold | microsomal CLint [2]: 445 µL/min/mg | Km [2]: 2.15 µM | CLH,p literature ([3]; ref Persson et al. (1987)): 29.0 L/h^d | Km (CYP3A4 [4]; human): 3.2 µM | Vmax (CYP3A4 [4]; human, pH 7.4): 14.1 pmol/min/pmol P450 | fraction unbound [5]: 0.907 | CLH,u,int (whole liver) (human liver microsomes [6]): 2,700 L/h

CCOc1ccc(NC(C)=O)cc1 [PH, phenacetin, reference compound]
CLH,p calculated (hepatic plasma clearance) ([1]; HLM, probe substrates, CLH,B x B:P): 21.9 L/h | CLH,B calculated (hepatic blood clearance, AAF corrected) ([1]; HLM, probe substrates, QH 90 L/h, Equation 9): 21.7 L/h | calculated CLH,B compared to literature ([1]; HLM, MDZ vs Kazmi, 2015, PH vs Shibata et al., 2002): ≤ 1.04 fold | CLH,u,int (whole liver) ([1]; HLM, MPPGL 40 mg/g, LW 1,650 g, Equation 4): 84.74 L/h | microsomal CLint [2]: 21.4 µL/min/mg | Km [2]: 40 µM | CLH,B literature (in vivo human hepatic blood clearance) ([3]; ref Shibata et al. (2002)): 20.8 L/h | Vmax (CYP1A2 [7]; CYP1A2 bactosomes): 11.6 pmol/min/pmol P450 | CLH,u,int (whole liver) (human liver microsomes [6]; [13]): 92.00 L/h | CLint,in vitro (human liver microsomes [6]; [13]): 23.3 µL/min/mg | CLint,in vitro (human liver microsomes [6]; HLM pool of 105 donors, ref Gao et al., 2017): 14.5 µL/min/mg | Km (human liver microsomes [6]): 10 to 62 µM

aflatoxin B1 [AFB1]
CLH,B calculated (hepatic blood clearance, AAF corrected), CYP3A4 [1]: 40.0 L/h and 40.0^CYP3A4 L/h | CLH,p calculated, CYP1A2 [1]: 39.6 L/h | CLH,p calculated, CYP3A4 [1]: 41.2 L/h | CLH,u,int (whole liver) [1]: 1,190 L/h | CLH,u,int (whole liver), CYP1A2 [1]: 583^CYP1A2 L/h | CLH,u,int (whole liver), CYP3A4 [1]: 535^CYP3A4 L/h | CLH,u,int,AAF [1]: 450^CYP3A4 L/h and 420^CYP1A2 L/h | Km [1]: 40.9 µM | CLint,in vitro ([1]; human): 282 µL/min/mg | CYP3A4 contribution (CYP3A4 [8]): 79–95% | Km (CYP3A4 [8]; read-out: Km for the AFBO formation via CYP3A4): 133 µM | Km (CYP3A4 [8]; read-out: Km for the AFM1 formation via CYP3A4): 139 µM | CYP3A4/5 contribution to AFB1 metabolism (CYP3A4/3A5): 45% | CLH,B calculated (hepatic blood clearance, ISEF and AAF corrected) (CYP3A4 [4]): 47.7 L/h | CLH,B from supersomes relative to CLH,B from HLM (CYP3A4) (CYP3A4 [4]): 1.19 fold | CLH,p calculated (CYP3A4 [4]): 49.1 L/h | CLH,u,int (CYP3A4 [4]): 755 L/h | CLH,u,int,AAF (CYP3A4 [4]): 634 L/h | Km (CYP3A4 [4]): 49.6 µM | Vmax,ISEF (CYP3A4 [4]): 5.97 nmol/mg/min | Vmax,ISEF (ISEF corrected Vmax) (CYP3A4 [4]): 43.6 pmol/min/pmol P450 | CYP3A7 contribution (CYP3A7): 5–7% | contribution ascribed to other enzymes, expectedly CYP2A13 (human liver microsomes [9]): 6.0% | sum of CYP3A4/5 and CYP1A2 contributions (human liver microsomes [9]): 94% | CYP3A5 contribution (CYP3A5): 4–15% | CLH,B calculated (hepatic blood clearance, ISEF and AAF corrected) (CYP1A2 [7]): 56.1 L/h | CLH,B from EasyCYP bactosomes relative to CLH,B from HLM (CYP1A2) (CYP1A2 [7]): 1.46 fold | CLH,p calculated (CYP1A2 [7]): 57.8 L/h | CLH,u,int (CYP1A2 [7]): 1,295 L/h | CLH,u,int,AAF (CYP1A2 [7]): 932 L/h | Km (CYP1A2 [7]): 58.2 µM | Vmax,ISEF (CYP1A2 [7]): 14.7 nmol/mg/min | CYP1A2 contribution to AFB1 metabolism (CYP1A2 [10]): 49% | Vmax (AFBO or AFQ1 formation), range (human liver microsomes [6]): 236–11,281 pmol/(mg.min) | Km (human liver microsomes [6]; read-out: Km (AFBO or AFQ1 formation), range): 90 to 1720 µM | CYP1A2 contribution (CYP1A2 [11]): 1–5% | contribution of CYP1A2 (CYP1A2 [11]): 95% | Km (CYP1A2 [11]; read-out: Km for the AFBO formation via CYP1A2): 41 µM | Km (CYP1A2 [11]; read-out: Km for the AFM1 formation via CYP1A2): 29 µM | fu,B (free fraction in blood) [12]: 0.160^b

— publication PMC9469084, “Unravelling the pharmacokinetics of aflatoxin B1: In vitro determination of Michaelis–Menten constants, intrinsic clearance and the metabolic contribution of CYP1A2 and CYP3A4 in pooled human liver microsomes” (Frontiers in Microbiology, 2022)
